Data as given in patent publication US4480118A, “Carboxylic acid ester and an insecticidal and/or acaricidal composition containing the same” (priority 1981, dated 1984).
Values after ≈ are worked out from the molar mass of the structure shown. Like-named read-outs stand apart in the source and are kept apart here.

Experiments:
housefly [1] = test: Insecticidal activity against housefly (Filter paper bait and contact method); type: in vivo; details: Musca domestica
Procedure: Each 20 parts of the present compounds No. 1 to No. 29, 10 parts of an emulsifier (Sorpol 3005X; trademark for Toho Chemical Co.) and 70 parts of xylene are thoroughly mixed by stirring to obtain an emulsifiable concentrate of each compound.
A piece of filter paper, 5.5 cm in diameter, was laid on the bottom of a polyethylene cup of the identical inner diameter. An emulsifiable concentrate prepared in the same manner as in Preparation Example 2 was diluted with water. To the filter paper, was added dropwise 0.7 ml of the diluted sample (500 ppm in concentration). Sucrose (30 mg) was placed on the filter paper to serve as bait. Ten adult female houseflies were released into the cup, closed with a cover, and observed for the number of dead and alive insects after 48 hours to calculate the mortality (2 replications).

tobacco cutworm = test: Insecticidal activity against tobacco cutworm; type: in vivo; details: 24 h
Procedure: An artificial diet (15 g) for tobacco cutworm was wet with 2 ml of the prescribed aqueous dilution of an emulsifiable concentrate obtained in Preparation Example 2 or of that obtained from reference compounds. The diet thus treated was placed in a polyethylene cup of 11 cm in diameter.

housefly [2] = test: Activity of oil spray against adult housefly (glass chamber); type: in vivo; details: oil spray 0.5 ml, 10 minutes exposure; for mortality, House fly: observed on the following day, 1440 min
Procedure: (§1) 0.1 Part of each compound Nos. 10, 12, 15, 17, 18, 19, 22, 23 and 29 of this invention is dissolved in deodorized kerosene and made up to 100 parts with kerosene to obtain an oil spray.
(§2) Ten adult houseflies and ten adult female northern house mosquitos were released in a glass chamber, 70×70×70 cm in size. An oil spray preparation (0.5 ml) obtained in Preparation Example 1 was sprayed inside the chamber and the insects were exposed to the descending mist for 10 minutes, during which time the number of knocked-down insects was counted at predetermined time intervals to determine the 50% knockdown time (KT50). On the following day, the dead and alive insects were observed.

northern house mosquito = test: Activity of oil spray against adult female northern house mosquito (glass chamber); type: in vivo
Procedure: as §1, §2

green rice leafhopper = test: Insecticidal activity against green rice leafhopper; details: Nephotettix cincticeps, 24 h
housefly [3] = test: Insecticidal activity against housefly (Topical application method); type: in vivo; details: dorsal thorax, adult female, 24 hours
Procedure: The present compounds and the reference compounds were diluted with acetone to prescribed concentrations. Each 0.5 μl of the diluted samples was applied topically with a microsyringe onto the dorsal thorax of an adult female housefly. The flies were fed and observed for the number of dead and alive insects after 24 hours. LD50 (median lethal dose) was calculated from the mortalities at each dosage by probit method.

[4] = read-out: LC50 (median lethal concentration)
[5] = oil spray 0.5 ml, 10 minutes exposure
[6] = oil spray 0.5 ml, 10 minutes exposure, observed on the following day, 1440 min
[7] = read-out: Percent mortality days after spraying: 0
[8] = 500 ppm, 48 hours, adult female houseflies, read-out: Mortality
[9] = northern house mosquito, in vivo, 24 h

Structure (SMILES): CC1(C)C(C(=O)OC(C#N)c2cccc(Oc3ccccc3)c2)C12Cc1ccccc12 (stereo not drawn) [Compound 19]
- mortality at 500 ppm (housefly [1]; 48 h): 100%
- LC50 (tobacco cutworm; [4]): 5 µg/mL (≈ 12.2 µM)
- KT50 (50% knockdown time), House fly (housefly [2]): 600 s
- mortality, House fly (housefly [2]): 80%
- KT50 (50% knockdown time), Northern house mosquito (northern house mosquito; [5]): 492 s
- mortality, Northern house mosquito (northern house mosquito; [6]): 100%

Structure (SMILES): CC1(C)C(C(=O)OC(C#N)c2ccc(F)c(Oc3ccccc3)c2)C12Cc1ccccc12 (stereo not drawn) [Compound 20]
- mortality at 500 ppm (housefly [1]; 48 h): 100%
- mortality at 50 ppm (green rice leafhopper; [7]): 100%
- mortality at 50 ppm (green rice leafhopper; read-out: Percent mortality days after spraying: 3): 100%
- mortality at 50 ppm (green rice leafhopper; read-out: Percent mortality days after spraying: 7): 90%

Structure (SMILES): CC1(C)C(C(=O)OCc2cccc(Oc3ccccc3)c2)C12Cc1ccccc1C2 (stereo not drawn) [Compound 21]
- mortality at 500 ppm (housefly [1]; [8]): 100%

Structure (SMILES): C#CCN1CC(=O)N(COC(=O)C2C(C)(C)C23Cc2ccccc2C3)C1=O (stereo not drawn) [Compound 22]
- mortality at 500 ppm (housefly [1]; [8]): 100%
- KT50 (50% knockdown time), House fly (housefly [2]): 80 s
- mortality, House fly (housefly [2]): 90%
- mortality, Northern house mosquito (northern house mosquito; [9]): 10%
- KT50 (50% knockdown time), Northern house mosquito (northern house mosquito; [5]): 344 s

Structure (SMILES): C#CCC=C(C)C(C#C)OC(=O)C1C(C)(C)C12Cc1ccccc1C2 (stereo not drawn) [Compound 23]
- mortality at 500 ppm (housefly [1]; [8]): 100%
- LD50 (median lethal dose) (housefly [3]): 0.045 μg/female
- KT50 (50% knockdown time), House fly (housefly [2]): 388 s
- mortality, House fly (housefly [2]): 60%
- mortality, Northern house mosquito (northern house mosquito; [9]): 70%
- KT50 (50% knockdown time), Northern house mosquito (northern house mosquito; [5]): 360 s

Structure (SMILES): C#CC(C#C)OC(=O)C1C(C)(C)C12Cc1ccccc1C2 (stereo not drawn) [Compound 24]
- mortality at 500 ppm (housefly [1]; [8]): 100%

Structure (SMILES): CC1(C)C(C(=O)OCC=C(Cl)Cc2ccccc2)C12Cc1ccccc1C2 (stereo not drawn) [Compound 25]
- mortality at 500 ppm (housefly [1]; [8]): 100%
- LC50 (tobacco cutworm; read-out: LC50 (median lethal concentration), treated artificial diet, third-instar larvae, 24 hours): 4 µg/mL (≈ 10.5 µM)

Structure (SMILES): C=CCc1cccc2c1CCC2OC(=O)C1C(C)(C)C12Cc1ccc(F)cc1C2 (stereo not drawn) [Compound 26]
- mortality at 500 ppm (housefly [1]; [8]): 100%

Structure (SMILES): CC1(C)C(C(=O)OCc2c(Cl)c(Cl)c(Cl)c(Cl)c2Cl)C12Cc1ccccc1C2 (stereo not drawn) [Compound 28]
- mortality at 500 ppm (housefly [1]; [8]): 100%
- LC50 (tobacco cutworm; treated artificial diet, third-instar larvae, 24 hours, read-out: LC50 (median lethal concentration)): 8.7 µg/mL (≈ 18.2 µM)

Structure (SMILES): CC1(C)C(C(=O)OC2C=C(Cc3ccccc3)C(=O)C2)C12Cc1ccccc1C2 (stereo not drawn) [Compound 29]
- mortality at 500 ppm (housefly [1]; [8]): 100%
- KT50 (50% knockdown time), House fly (housefly [2]): 298 s
- mortality, House fly (housefly [2]): 40%
- mortality, Northern house mosquito (northern house mosquito; [9]): 70%
- KT50 (50% knockdown time), Northern house mosquito (northern house mosquito; [5]): 296 s

Structure (SMILES): CNC(=O)Oc1cccc2ccccc12 [NAC, 1naphthyl N--methylcarbamate, reference compound]
- mortality at 250 ppm (green rice leafhopper; [7]): 50%

Structure (SMILES): CC(C)=CC1C(C(=O)OCc2cccc(Oc3ccccc3)c2)C1(C)C (stereo not drawn) [drawing 58, reference compound]
- LD50 (median lethal dose) (housefly [3]): 0.26 μg/female

Structure (SMILES): CC1(C)C(C(=O)OC(C#N)c2cccc(Oc3ccccc3)c2)C12C=Cc1ccccc12 (stereo not drawn) [drawing 61, reference compound]
- LD50 (median lethal dose) (housefly [3]): 0.16 μg/female

Structure (SMILES): CC(C)=CC1C(C(=O)OCc2cccc(Oc3ccccc3)c2)C1(C)C (stereo not drawn) [drawing 62, reference compound]
- LC50 (tobacco cutworm; [4]): 24 µg/mL (≈ 68.5 µM)

Structure (SMILES): CC1(C)C(C(=O)OC(C#N)c2cccc(Oc3ccccc3)c2)C12C=Cc1ccccc12 (stereo not drawn) [drawing 63, reference compound]
- LC50 (tobacco cutworm; [4]): 46.1 µg/mL (≈ 109 µM)

Structure (SMILES): CC1(C)C(C(=O)OC(C#N)c2cccc(Oc3ccccc3)c2)C12C=Cc1ccccc12 (stereo not drawn) [drawing 64, reference compound]
- KT50 (50% knockdown time), House fly (housefly [2]): > 600 s
- KT50 (50% knockdown time), Northern house mosquito (northern house mosquito; [5]): 600 s
- mortality, Northern house mosquito (northern house mosquito; [6]): 50%

Structure (SMILES): CC(C)=CC1C(C(=O)OC(C#N)c2cccc(Oc3ccccc3)c2)C1(C)C (stereo not drawn) [reference compound]
- LD50 (median lethal dose) (housefly [3]): 0.079 μg/female
